In US20070249620A1, “Urea Derivative” (priority 2004, published 2007):

How the values were obtained:
mouse DGAT1 = target: T1, mouse DGAT1 (Mus musculus, UniProt Q9Z2A7); experiment: DGAT1 inhibitory effect test (microsome fraction, [14C]-oleoyl-CoA, triglyceride radioactivity by TLC); format: biochemical; details: 0.5 h; concentration of the test compound 0.1 μg/ml; mouse DGAT1 microsomes, 23° C., 30 minutes; read-out: Inhibitory ratio
T1 construct: made in house; host or cells: insect cells (High Five, Sf9, Sf21, etc.), baculovirus expression system (Invitrogen)
T1 sequence (Q9Z2A7 1-498): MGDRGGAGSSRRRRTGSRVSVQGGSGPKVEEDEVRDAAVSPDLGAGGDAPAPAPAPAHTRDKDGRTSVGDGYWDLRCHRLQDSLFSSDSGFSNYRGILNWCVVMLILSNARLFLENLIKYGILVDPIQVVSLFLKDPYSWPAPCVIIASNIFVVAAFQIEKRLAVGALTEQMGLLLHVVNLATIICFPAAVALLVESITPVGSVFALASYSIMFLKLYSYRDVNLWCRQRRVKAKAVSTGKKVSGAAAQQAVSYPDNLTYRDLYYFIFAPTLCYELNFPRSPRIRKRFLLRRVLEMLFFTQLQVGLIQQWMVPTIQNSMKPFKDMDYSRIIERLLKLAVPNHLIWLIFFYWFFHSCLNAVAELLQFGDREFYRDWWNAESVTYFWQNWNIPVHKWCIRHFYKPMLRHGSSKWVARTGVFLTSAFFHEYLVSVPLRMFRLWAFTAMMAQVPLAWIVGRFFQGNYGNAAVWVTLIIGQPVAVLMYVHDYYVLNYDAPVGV
Summary of the method: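 Baculovirus-expressed mouse DGAT1 insect-cell microsomes (10 μg) were incubated 30 min at 23 °C, pH 8.0, with 0.5 mM 1,2-dioleoyl-sn-glycerol, 30 μM [14C]-oleoyl-CoA and 0.5% Triton X-100. [14C]-triglyceride was quantified after heptane extraction and TLC. Percent inhibition was taken against vehicle control, with 0-min background subtracted.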

SMILES | inhibition at 0.1 µg/mL (mouse DGAT1) [%] | melting point [°C]
COc1ccc(C)cc1NC(=O)Nc1ccc2c(c1)CCN(C(=O)Oc1ccc(CCO)cc1Cl)C2 [Example 396, 6-[3-(2-methoxy-5-methyl-phenyl)-ureido]-3,4-dihydro-1H-isoquinoline-2-carboxylic acid 2-chloro-4-(2-hydroxy-ethyl)-phenyl ester] | ≥ 50 | 95 to 98
COc1cc(NC(=O)Nc2ccc(N3CCN(C(=O)Nc4ncccc4C)CC3)cc2)cc(OC)c1 [Example 306, 4-{4-[3-(3,5-dimethoxy-phenyl)-ureido]-phenyl}-piperazine-1-carboxylic acid (3-methyl-pyridin-2-yl)-amide] | ≥ 50 | 188 to 190
Cc1cccc(Cl)c1NC(=O)N1CCN(c2ccc(NC(=O)Nc3ccc(N(C)C)cc3)cc2)CC1 [Example 156, 4-{4-[3-(4-dimethylamino-phenyl)-ureido]-phenyl}-piperazine-1-carboxylic acid (2-chloro-6-methyl-phenyl)-amide] | ≥ 50 | 214 to 217
COc1ccc(C)cc1NC(=O)Nc1ccc(C2=CCN(C(=O)Nc3ccc(OCC(O)CO)cc3Cl)CC2)cc1 (stereo not drawn) [Example 281, 4-{4-[3-(2-methoxy-5-methyl-phenyl)-ureido]-phenyl}-3,6-dihydro-2H-pyridine-1-carboxylic acid [2-chloro-4-(2,3-dihydroxy-propoxy)-phenyl]-amide] | ≥ 50 | 125 to 128
COc1ccc(C)cc1NC(=O)Nc1ccc(N2CCN(C(=O)Nc3c(C)cccc3C)CC2)nc1 [Example 138, 4-{5-[3-(2-methoxy-5-methyl-phenyl)-ureido]-pyridin-2-yl}-piperazine-1-carboxylic acid (2,6-dimethyl-phenyl)-amide] | ≥ 50 | 221 to 223
COc1ccc(C)cc1NC(=O)Nc1ccc(N2CCN(C(=O)Nc3c(F)cccc3C(F)(F)F)CC2)nc1 [Example 139, 4-{5-[3-(2-methoxy-5-methyl-phenyl)-ureido]-pyridin-2-yl}-piperazine-1-carboxylic acid (2-fluoro-6-trifluoromethyl-phenyl)-amide] | ≥ 50 | 221 to 222
CCOc1ccccc1NC(=O)Nc1ccc(N2CCN(C(=O)Nc3ccc(C)cc3Cl)CC2)cc1 [Example 121, 4-{4-[3-(2-ethoxy-phenyl)-ureido]-phenyl}-piperazine-1-carboxylic acid (2-chloro-4-methyl-phenyl)-amide] | ≥ 50 | 179 to 181
COc1ccc(C)cc1NC(=O)Nc1ccc(N2CCN(C(=O)Nc3c(C)cccc3Cl)CC2)cc1 [Example 59, 4-{4-[3-(2-methoxy-5-methyl-phenyl)-ureido]-phenyl}-piperazine-1-carboxylic acid (2-chloro-6-methyl-phenyl)-amide] | ≥ 50 | 143 to 145
COc1cc(NC(=O)Nc2ccc(C3=CCN(C(=O)Nc4ccc(OCC(O)CO)cc4Cl)CC3)cc2)cc(OC)c1 (stereo not drawn) [Example 287, 4-{4-[3-(3,5-dimethoxy-phenyl)-ureido]-phenyl}-3,6-dihydro-2H-pyridine-1-carboxylic acid [2-chloro-4-(2,3-dihydroxy-propoxy)-phenyl]-amide] | ≥ 50 | 108 to 111
COc1ccccc1NC(=O)Nc1ccc(C2=CCN(C(=O)Nc3ccc(OCCO)cc3Cl)CC2)cc1 [Example 258, 4-{4-[3-(2-methoxy-phenyl)-ureido]-phenyl}-3,6-dihydro-2H-pyridine-1-carboxylic acid [2-chloro-4-(2-hydroxy-ethoxy)-phenyl]-amide] | ≥ 50 | 120 to 125
COc1ccc(C)cc1NC(=O)Nc1ccc(N2CCN(C(=O)Nc3c(F)cccc3F)CC2)nc1 [Example 152, 4-{5-[3-(2-methoxy-5-methyl-phenyl)-ureido]-pyridin-2-yl}-piperazine-1-carboxylic acid (2,6-difluoro-phenyl)-amide] | ≥ 50 | 237 to 239
COc1ccc(Cl)cc1NC(=O)Nc1ccc(N2CCN(C(=O)Nc3c(C)cccc3C)CC2)cc1 [Example 114, 4-{4-[3-(5-chloro-2-methoxy-phenyl)-ureido]-phenyl}-piperazine-1-carboxylic acid (2,6-dimethyl-phenyl)-amide] | ≥ 50 | 216 to 218
O=C(Nc1ccc2c(c1)CCN(C(=O)Nc1ccc(OCC(O)CO)cc1Cl)C2)Nc1ccccc1F (stereo not drawn) [Example 290, 6-[3-(2-fluoro-phenyl)-ureido]-3,4-dihydro-1H-isoquinoline-2-carboxylic acid [2-chloro-4-(2,3-dihydroxy-propoxy)-phenyl]-amide] | ≥ 50 | 164 to 167
COc1ccc(C)cc1NC(=O)Nc1ccc(N2CCN(C(=O)Nc3ccccc3Br)CC2)cc1 [Example 57, 4-{4-[3-(2-methoxy-5-methyl-phenyl)-ureido]-phenyl}-piperazine-1-carboxylic acid (2-bromo-phenyl)-amide] | ≥ 50 | 212 to 214
COc1ccc(Cl)cc1NC(=O)Nc1ccc(N2CCN(C(=O)Nc3c(F)cccc3C(F)(F)F)CC2)cc1 [Example 115, 4-{4-[3-(5-chloro-2-methoxy-phenyl)-ureido]-phenyl}-piperazine-1-carboxylic acid (2-fluoro-6-trifluoromethyl-phenyl)-amide] | ≥ 50 | 156 to 158
COc1ccc(C)cc1NC(=O)Nc1ccc(N2CCN(C(=O)Nc3ccc(C)cc3Cl)CC2)cc1 [Example 76, 4-{4-[3-(2-methoxy-5-methyl-phenyl)-ureido]-phenyl}-piperazine-1-carboxylic acid (2-chloro-4-methyl-phenyl)-amide] | ≥ 50 | 186 to 187
COc1ccc(C)cc1NC(=O)Nc1ccc(N2CCN(C(=O)Nc3ccc(F)cc3C(F)(F)F)CC2)cc1 [Example 87, 4-{4-[3-(2-methoxy-5-methyl-phenyl)-ureido]-phenyl}-piperazine-1-carboxylic acid (4-fluoro-2-trifluoromethyl-phenyl)-amide] | ≥ 50 | 172 to 174
COc1ccc(C)cc1NC(=O)Nc1ccc(N2CCN(C(=O)Nc3ccccc3C)CC2)cc1 [Example 54, 4-{4-[3-(2-methoxy-5-methyl-phenyl)-ureido]-phenyl}-piperazine-1-carboxylic acid o-tolylamide] | ≥ 50 | 209 to 211
COc1ccc(C)cc1NC(=O)Nc1ccc(N2CCN(C(=O)Nc3ccc(OCCO)cc3C(F)(F)F)CC2)c(C#N)c1 [Example 242, 4-{2-cyano-4-[3-(2-methoxy-5-methyl-phenyl)-ureido]-phenyl}-piperazine-1-carboxylic acid [4-(2-hydroxy-ethoxy)-2-trifluoromethyl-phenyl]-amide] | ≥ 50 | 135 to 137
COc1ccc(C)cc1NC(=O)Nc1ccc(N2CCN(C(=O)Nc3ccc(C)cc3Cl)CC2)nc1 [Example 147, 4-{5-[3-(2-methoxy-5-methyl-phenyl)-ureido]-pyridin-2-yl}-piperazine-1-carboxylic acid (2-chloro-4-methyl-phenyl)-amide] | ≥ 50 | 214 to 215
COc1ccc(F)cc1NC(=O)Nc1ccc(N2CCN(C(=O)Nc3c(C)cccc3C)CC2)cc1 [Example 99, 4-{4-[3-(5-fluoro-2-methoxy-phenyl)-ureido]-phenyl}-piperazine-1-carboxylic acid (2,6-dimethyl-phenyl)-amide] | ≥ 50 | 226 to 228
O=C(Nc1ccc(N2CCN(C(=O)Nc3ccc(OCCO)cc3C(F)(F)F)CC2)cc1)Nc1ccccc1F [Example 211, 4-{4-[3-(2-fluoro-phenyl)-ureido]-phenyl}-piperazine-1-carboxylic acid [4-(2-hydroxy-ethoxy)-2-trifluoromethyl-phenyl]-amide] | ≥ 50 | 219 to 220
COc1ccc(C)cc1NC(=O)Nc1ccc(N2CCN(C(=O)Nc3ccc(OCCO)cc3Cl)CC2)c(F)c1 [Example 253, 4-{2-fluoro-4-[3-(2-methoxy-5-methyl-phenyl)-ureido]-phenyl}-piperazine-1-carboxylic acid [2-chloro-4-(2-hydroxy-ethoxy)-phenyl]-amide] | ≥ 50 | 118 to 120
COc1ccc(C)cc1NC(=O)Nc1ccc(N2CCN(C(=O)Nc3ccc(OCCO)cc3C)CC2)cc1 [Example 208, 4-{4-[3-(2-methoxy-5-methyl-phenyl)-ureido]-phenyl}-piperazine-1-carboxylic acid [4-(2-hydroxy-ethoxy)-2-methyl-phenyl]-amide] | ≥ 50 | 174 to 176
